Series [1] can be described thus: Toxicity in mouse assessed as 50% inhibition of protein synthesis. Type of series: organism-based. To be noted: in vivo, read-out: Activity.
The species named for another series is Mus musculus. Description: Skin toxicity in mouse. Type of series: organism-based. To be noted: in vivo.

This passage reports IC50 and MED results from ChEMBL document CHEMBL1151615, “Trichothecenes, 1: The synthesis of 4-deoxyverrucarol from verrucarol and diacetoxyscirpenol” (J Nat Prod, 1984).

SMILES strings stand for the structures. Values after ≈ are worked out from the molar mass of the structure shown.

In the case of `CC1=C[C@H]2O[C@@H]3C[C@@H](O)[C@](C)([C@@]2(CO)CC1)[C@]31CO1` [VERRUCAROL], the IC50 in series [1] was 15.8 µg/mL (≈ 59.3 µM). In addition, the MED entry in the series listed under Mus musculus is listed as “>= 500 ng”.
The like results for `CC1=C[C@H]2O[C@@H]3CC[C@](C)([C@@]2(CO)CC1)[C@]31CO1` [DEOXYVERRUCAROL] were, in that order, 62.2 µg/mL (≈ 248 µM) and “>= 500 ng”.
On to `CC(=O)OC[C@]12C[C@H](OC(=O)CC(C)C)C(C)=C[C@H]1O[C@@H]1[C@H](O)[C@@H](OC(C)=O)[C@@]2(C)[C@]12CO2` [T-2 TOXIN], for which, in series [1], the IC50 came to 0.005 µg/mL (≈ 0.0107 µM). In the series filed under Mus musculus, this molecule gave an MED of 50.2 ng.
